pEC50: −log10 of the molar value. Read-outs that look alike come from different tables or passages of the source.
Tests used:
[1] = biological target: T1, glutathione-S-transferase (GST) tagged LXRbeta LBD (ligand binding domain) (Homo sapiens, UniProt P55055); assay: LanthaScreen TR-FRET Liver X Receptor Coactivator Assay, LXR beta; format: biochemical; details: for Emax: read-out: LXR beta actiivty at max dose (%); for pEC50 / EC50: potency (Inflection Point) of compound-induced co-activator recruitment, TR-FRET; for pEC50: read-out: LXR beta IP; for EC50: LXR beta IP (nM)
T1 construct: purchased Invitrogen pv4658.pps
T1 sequence (P55055 222-460 limits assumed): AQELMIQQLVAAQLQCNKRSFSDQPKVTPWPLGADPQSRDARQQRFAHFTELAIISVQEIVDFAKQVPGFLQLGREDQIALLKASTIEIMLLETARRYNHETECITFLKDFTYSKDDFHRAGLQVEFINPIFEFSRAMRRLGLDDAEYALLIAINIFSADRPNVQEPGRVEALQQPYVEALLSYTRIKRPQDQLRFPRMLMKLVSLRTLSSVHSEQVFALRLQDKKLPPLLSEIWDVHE
In short: (§1)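 Coactivator recruitment format: receptor LBD exposed to compounds, detection via Tb-antibody/fluorescein-peptide pair, room-temperature incubation, TR-FRET signal on a filter instrument.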

[2] = biological target: T2, glutathione-S-transferase (GST) tagged LXRalpha LBD (ligand binding domain) (Homo sapiens, UniProt Q13133); assay: LanthaScreen TR-FRET Liver X Receptor Coactivator Assay, LXR alpha; format: biochemical; details: for Emax: read-out: LXR alpha actiivty at max dose (%); for pEC50: read-out: LXR alpha IP
T2 construct: purchased Invitrogen pv4655
T2 sequence (Q13133 209-447 limits assumed): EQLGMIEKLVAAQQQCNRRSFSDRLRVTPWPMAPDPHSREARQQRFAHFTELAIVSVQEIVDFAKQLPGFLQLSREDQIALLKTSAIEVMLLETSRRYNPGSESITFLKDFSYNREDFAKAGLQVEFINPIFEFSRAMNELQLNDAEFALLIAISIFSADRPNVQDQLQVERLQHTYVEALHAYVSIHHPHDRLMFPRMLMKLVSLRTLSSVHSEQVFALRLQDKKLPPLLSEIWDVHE
In short: as §1

[3] = efficacy (Emax) in relation to reference dual agonist T0901317
[4] = potency (Inflection Point) of compound-induced co-activator recruitment, TR-FRET

CCOc1cccc(C(O)(C(=O)N2CCC3(CCC(Sc4ccc(C(=O)N(C)C)c(Cl)c4)CC3)CC2)C(F)(F)F)c1 (single isomer, unassigned) [Example 19-3, 2-chloro-4-(3-((S or R)-2-(3-ethoxyphenyl)-3,3,3-trifluoro-2-hydroxypropanoyl)-3-azaspiro[5.5]undecan-9-ylthio)-N,N-dimethylbenzamide]
Emax [1, 3]: 95%
pEC50 [1]: 6.87
Emax [2, 3]: 0%
LXR alpha IP (nM) [2, 4]: No IP

CN(C)C(=O)c1ccc([S+]([O-])C2CCC3(CC2)CCN(C(=O)C(O)(c2cc(Cl)cc(Cl)c2)C(F)(F)F)CC3)cc1Cl (single isomer, unassigned) [Example 20-1, 2-chloro-4-(3-((R or S)-2-(3,5-dichlorophenyl)-3,3,3-trifluoro-2-hydroxypropanoyl)-3-azaspiro[5.5]undecan-9-ylsulfinyl)-N,N-dimethylbenzamide]
EC50 [1]: 938 nM
Emax [1]: 50%
LXR alpha IP (nM) [2, 4]: No IP
Emax [2]: 0%

CN(C)C(=O)c1ccc(S(=O)(=O)C2CCC3(CC2)CCN(C(=O)C(O)(c2cc(Cl)cc(Cl)c2)C(F)(F)F)CC3)cc1Cl (single isomer, unassigned) [Example 21-1, 2-chloro-4-(3-((R or S)-2-(3,5-dichlorophenyl)-3,3,3-trifluoro-2-hydroxypropanoyl)-3-azaspiro[5.5]undecan-9-ylsulfonyl)-N,N-dimethylbenzamide]
EC50 [1]: 1460 nM
Emax [1]: 50%
LXR alpha IP (nM) [2, 4]: No IP
Emax [2]: 0%

COc1cccc([C@@](O)(C(=O)N2CCC([C@H]3C[C@H]3CSc3ccc(C(=O)N(C)C)c(Cl)c3)CC2)C(F)(F)F)c1 (single isomer, unassigned) [Example 23-1, 2-chloro-N,N-dimethyl-4-(((1R,2R or 1S,2S)-2-(1-((R or S)-3,3,3-trifluoro-2-hydroxy-2-(3-methoxyphenyl)propanoyl)piperidin-4-yl)cyclopropyl)methylthio)benzamide]
Emax [1, 3]: 118%
pEC50 [1]: 7.57
Emax [2, 3]: 24%
pEC50 [2, 4]: 6.02

CNC(=O)c1ccc(NCCCCC2CCN(C(=O)C3(c4ccccc4)CCCC3)CC2)cc1Cl [Example 1-4, 2-chloro-N-methyl-4-(4-(1-(1-phenylcyclopentanecarbonyl)piperidin-4-yl)butylamino)benzamide]
Emax [1, 3]: 42%
pEC50 [1]: 6.74
Emax [2, 3]: 2%
LXR alpha IP (nM) [2, 4]: No IP

CN(C)C(=O)c1ccc(NCCCC2CCN(S(=O)(=O)c3c(Cl)cccc3Cl)CC2)cc1Cl [Example 1-12, 2-chloro-4-(3-(1-(2,6-dichlorophenylsulfonyl)piperidin-4-yl)propylamino)-N,N-dimethylbenzamide]
Emax [1, 3]: 82%
pEC50 [1]: 7.57
Emax [2, 3]: 46%
pEC50 [2, 4]: 6.07

CN(C)C(=O)c1ccc(NCCC2CCN(C(=O)OCc3ccccc3)CC2)cc1Cl [Example 1-13, benzyl 4-(2-(3-chloro-4-(dimethylcarbamoyl)phenylamino)ethyl)piperidine-1-carboxylate]
Emax [1, 3]: 21%
pEC50 [1]: 6.98
Emax [2, 3]: 12%
LXR alpha IP (nM) [2, 4]: No IP

CN(C)C(=O)c1ccc(NCCCCC2CCN(C(=O)OCc3ccccc3)CC2)cc1Cl [Example 1-14, benzyl 4-(4-(3-chloro-4-(dimethylcarbamoyl)phenylamino)butyl)piperidine-1-carboxylate]
Emax [1, 3]: 41%
pEC50 [1]: 6.97
Emax [2, 3]: 14%
pEC50 [2, 4]: 5.70

CN(C)C(=O)c1ccc(NCCCCC2CCN(C(=O)C(O)(c3ccccc3)C(F)(F)F)CC2)nc1Cl (centres unmarked) [Example 2-1, 2-chloro-N,N-dimethyl-6-(4-(1-(3,3,3-trifluoro-2-hydroxy-2-phenylpropanoyl)piperidin-4-yl)butylamino)nicotinamide]
pEC50 [1]: 7.54
Emax [1]: 52%
EC50 ([2]; LXR alpha IP (nM), potency (Inflection Point) of compound-induced co-activator recruitment, TR-FRET): 1250 nM
Emax [2]: 25%

CN(C)C(=O)c1ccc(N(C)CCC2CC3(CCN(C(=O)C(C)(C)c4ccccc4)CC3)C2)nc1Cl [Example 12-1, 2-chloro-N,N-dimethyl-6-(methyl(2-(7-(2-methyl-2-phenylpropanoyl)-7-azaspiro[3.5]nonan-2-yl)ethyl)amino)nicotinamide]
pEC50 [1]: 6.37
Emax [1]: 34%
LXR alpha IP (nM) [2, 4]: No IP
Emax [2]: 5%

CN(Cc1ccc(C(=O)N(C)C)c(Cl)c1)CC1CC12CCN(C(=O)C(C)(C)c1ccccc1)CC2 (centres unmarked) [Example 14-1, 2-chloro-N,N-dimethyl-4-((methyl((6-(2-methyl-2-phenylpropanoyl)-6-azaspiro[2.5]octan-1-yl)methyl)amino)methyl)benzamide]
Emax [1, 3]: 99%
pEC50 [1]: 5.90
Emax [2, 3]: 33%
pEC50 [2, 4]: 4.81

CN(C)C(=O)c1ccc(CCCCC2CCN(C(=O)C(C)(C)c3ccccc3)CC2)cc1Cl [Example 15-4, 2-chloro-N,N-dimethyl-4-(4-(1-(2-methyl-2-phenylpropanoyl)piperidin-4-yl)butyl)benzamide]
Emax [1, 3]: 103%
pEC50 [1]: 7.49
Emax [2, 3]: 39%
pEC50 [2, 4]: 6.33

CN(C)C(=O)c1ccc(CCCC2CC3(CCN(C(=O)C(C)(C)c4ccccc4)CC3)C2)cc1Cl [Example 16-3, 2-chloro-N,N-dimethyl-4-(3-(7-(2-methyl-2-phenylpropanoyl)-7-azaspiro[3.5]nonan-2-yl)propyl)benzamide]
Emax [1, 3]: 108%
pEC50 [1]: 7.25
Emax [2, 3]: 50%
pEC50 [2, 4]: 6.37

CN(C)C(=O)c1ccc(S(=O)(=O)CCCCC2CCN(C(=O)C(C)(C)c3ccccc3)CC2)cc1Cl [Example 22-1, 2-chloro-N,N-dimethyl-4-(4-(1-(2-methyl-2-phenylpropanoyl)piperidin-4-yl)butylsulfonyl)benzamide]
Emax [1, 3]: 57%
pEC50 [1]: 5.70
Emax [2, 3]: 2%
LXR alpha IP (nM) [2, 4]: No IP

From patent US10894775B2, “Piperidine derivatives as liver X receptor beta agonists, compositions, and their use” (Merck Sharp & Dohme Corp., priority 2016, dated 2021)
